Data published in patent US9085576B2 (AMGEN INC., priority 2013, dated 2015).
Structures can show the parent of a compound that is named as a salt.

Assays:
BACE = BACE (Homo sapiens (Human), UniProt P56817); assay: In vitro BACE cell-based assay (Aβ40 in conditioned medium, sandwich ELISA)
[1] = biological target: Beta Secretase enzyme (BACE) (Homo sapiens (Human), UniProt P56817); assay: In vitro enzymatic BACE FRET assay; format: biochemical; conditions: read-out: BACE1 Enzyme assay IC50
Cathepsin D (Cat D) = Cathepsin D (Cat D) (Homo sapiens (Human), UniProt P07339); assay: In vitro enzymatic Cathepsin D (Cat D) FRET assay; format: biochemical; conditions: read-out: CatD IC50
Chain of Cathepsin D (Cat D) (P07339 65-412, species assumed): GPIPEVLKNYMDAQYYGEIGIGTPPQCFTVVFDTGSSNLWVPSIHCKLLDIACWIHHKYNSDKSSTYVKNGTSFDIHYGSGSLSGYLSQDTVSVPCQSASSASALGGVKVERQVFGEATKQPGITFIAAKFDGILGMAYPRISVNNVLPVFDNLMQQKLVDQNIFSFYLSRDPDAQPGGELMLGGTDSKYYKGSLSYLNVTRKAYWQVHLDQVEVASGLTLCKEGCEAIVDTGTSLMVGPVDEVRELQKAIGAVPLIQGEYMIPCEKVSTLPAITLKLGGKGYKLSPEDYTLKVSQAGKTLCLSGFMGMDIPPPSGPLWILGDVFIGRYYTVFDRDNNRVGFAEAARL

Chain of BACE (P56817 46-501, species assumed): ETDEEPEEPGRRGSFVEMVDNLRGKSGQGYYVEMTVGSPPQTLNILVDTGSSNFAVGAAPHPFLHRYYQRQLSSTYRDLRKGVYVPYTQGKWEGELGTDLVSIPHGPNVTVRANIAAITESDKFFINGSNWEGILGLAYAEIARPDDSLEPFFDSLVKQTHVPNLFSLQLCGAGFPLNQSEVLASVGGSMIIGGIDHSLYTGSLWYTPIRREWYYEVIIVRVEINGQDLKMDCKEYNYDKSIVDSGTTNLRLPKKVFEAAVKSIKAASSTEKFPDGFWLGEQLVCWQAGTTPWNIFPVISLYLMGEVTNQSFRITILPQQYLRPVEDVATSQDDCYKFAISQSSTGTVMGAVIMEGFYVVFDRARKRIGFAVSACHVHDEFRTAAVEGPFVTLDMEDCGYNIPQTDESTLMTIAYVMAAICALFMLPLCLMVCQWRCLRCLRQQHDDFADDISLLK
Chain of Beta Secretase enzyme (BACE) (P56817 46-501): as the sequence (P56817 46-501, species assumed) above

Row | Compound | IC50 (BACE) [µM] | IC50 [1] [nM] | IC50 (Cathepsin D (Cat D)) [µM]
1 | NC1=N[C@@](c2cc(NC(=O)c3cc(Cl)cs3)ccc2F)(C(F)F)[C@H]2C[C@H]2O1 [Example 177, N-(3-((1R,5S,6R)-3-amino-5-(difluoromethyl)-2-oxa-4-azabicyclo[4.1.0]hept-3-en-5-yl)-4-fluorophenyl)-4-chlorothiophene-2-carboxamide] | 0.373 | 185 | 762
2 | NC1=N[C@](c2cc(NC(=O)c3ccc(Cl)cn3)ccc2Cl)(C(F)F)[C@@H]2C[C@@H]2O1 [Example 92, N-(3-((1S,5R,6S)-3-amino-5-(difluoromethyl)-2-oxa-4-azabicyclo[4.1.0]hept-3-en-5-yl)-4-chlorophenyl)-5-chloropicolinamide] | > 15.6 | 17000 | 770
3 | CCOc1cnc(C(=O)Nc2ccc(F)c([C@@]3(C(F)F)N=C(N)O[C@@H]4C[C@@H]43)c2)cn1 [Example 417, N-(3-((1R,5S,6R)-3-amino-5-(difluoromethyl)-2-oxa-4-azabicyclo[4.1.0]hept-3-en-5-yl)-4-fluorophenyl)-5-ethoxypyrazine-2-carboxamide] | 0.0876 | 115 | 1470
4 | Cc1cc(C#N)cnc1C(=O)Nc1cc(F)c(F)c([C@@]2(CF)N=C(N)O[C@@H]3C[C@@H]32)c1 [Example 49] | 0.0082 | 30.8 | 202
5 | NC1=N[C@@](c2cc(NC(=O)c3cnc(OCc4nccs4)cn3)ccc2F)(C(F)F)[C@H]2C[C@H]2O1 [Example 165, N-(3-((1R,5S,6R)-3-amino-5-(difluoromethyl)-2-oxa-4-azabicyclo[4.1.0]hept-3-en-5-yl)-4-fluorophenyl)-5-(thiazol-2-ylmethoxy)pyrazine-2-carboxamide] | 0.0606 | 19.2 | 383
6 | Cc1cc(Cl)cnc1C(=O)Nc1ccc(Cl)c([C@@]2(CF)N=C(N)O[C@@H]3C[C@@H]32)c1 [Example 443, N-(3-((1R,5S,6R)-3-amino-5-(fluoromethyl)-2-oxa-4-azabicyclo[4.1.0]hept-3-en-5-yl)-4-chlorophenyl)-5-chloro-3-methylpicolinamide] | 0.0136 | 37.3 | 517
7 | NC1=N[C@@](c2cc(NC(=O)c3cnc(OCC4CCCCC4)cn3)ccc2F)(C(F)F)[C@H]2C[C@H]2O1 [Example 416, N-(3-((1R,5S,6R)-3-amino-5-(difluoromethyl)-2-oxa-4-azabicyclo[4.1.0]hept-3-en-5-yl)-4-fluorophenyl)-5-(cyclohexylmethoxy)pyrazine-2-carboxamide] | 2.5 | 12.1 | 228
8 | NC1=N[C@@](c2cc(NC(=O)C3CC3)ccc2F)(C(F)F)[C@H]2C[C@H]2O1 [Example 260, N-(3-((1R,5S,6R)-3-amino-5-(difluoromethyl)-2-oxa-4-azabicyclo[4.1.0]hept-3-en-5-yl)-4-fluorophenyl) cyclopropanecarboxamide] | 3.19 | 5170 | 104
9 | COC[C@H](C)NC(=O)c1ccc(F)c([C@@]2(C(F)F)N=C(N)O[C@@H]3C[C@@H]32)c1 [Example 428, 3-((1R,5S,6R)-3-Amino-5-(difluoromethyl)-2-oxa-4-azabicyclo[4.1.0]hept-3-en-5-yl)-4-fluoro-N—((S)-1-methoxypropan-2-yl)benzamide] | > 15.6 | > 40000 | 1520
10 | N#Cc1cnc2c(Nc3ccc(F)c([C@@]4(CF)N=C(N)O[C@@H]5C[C@@H]54)c3)ncnc2c1 [Example 393, 4-((3-((1R,5S,6R)-3-amino-5-(fluoromethyl)-2-oxa-4-azabicyclo[4.1.0]hept-3-en-5-yl)-4-fluorophenyl)amino)pyrido[3,2-d]pyrimidine-7-carbonitrile] | 0.0243 | 198 | 147
11 | Cc1cc(OC(F)F)cnc1C(=O)Nc1ccc(Cl)c([C@@]2(CF)N=C(N)O[C@@H]3C[C@@H]32)c1 [Example 126, N-(3-((1R,5S,6R)-3-amino-5-(fluoromethyl)-2-oxa-4-azabicyclo[4.1.0]hept-3-en-5-yl)-4-chlorophenyl)-5-(difluoromethoxy)-3-methylpicolinamide] | 0.0146 | 83.5 | 1200
12 | COc1cnc(C(=O)Nc2ccc(Cl)c([C@@]3(CF)N=C(N)O[C@@H]4C[C@@H]43)c2)c(C)n1 [Example 301, N-(3-((1R,5S,6R)-3-amino-5-(fluoromethyl)-2-oxa-4-azabicyclo[4.1.0]hept-3-en-5-yl)-4-chlorophenyl)-5-methoxy-3-methylpyrazine-2-carboxamide] | 0.031 | 352 | 715
13 | COc1cc(Cl)cnc1C(=O)Nc1ccc(Cl)c([C@@]2(CF)N=C(N)O[C@@H]3C[C@@H]32)c1 [Example 297, N-(3-((1R,5S,6R)-3-amino-5-(fluoromethyl)-2-oxa-4-azabicyclo[4.1.0]hept-3-en-5-yl)-4-chlorophenyl)-5-chloro-3-methoxypicolinamide] | 0.0074 | 184 | 
14 | NC1=N[C@](CF)(c2cc(NC(=O)c3ccc(Cl)cn3)cc(F)c2F)[C@H]2C[C@H]2O1 [Example 142, N-(3-(((1R,S),(5S,R),(6R,S))-3-amino-5-(fluoromethyl)-2-oxa-4-azabicyclo[4.1.0]hept-3-en-5-yl)-4,5-difluorophenyl)-5-chloropicolinamide] | 0.0263 |  | 
15 | COc1cnc(C(=O)Nc2ccc(F)c([C@@]3(C)N=C(N)O[C@@H]4C[C@@H]43)n2)cn1 [Example 322, N-(6-((1R,5S,6R)-3-amino-5-methyl-2-oxa-4-azabicyclo[4.1.0]hept-3-en-5-yl)-5-fluoropyridin-2-yl)-5-methoxypyrazine-2-carboxamide] | 0.184 | 1990 | 
16 | N#Cc1cnc2c(c1)CC[C@H]2Nc1ccc(F)c([C@@]2(C(F)F)N=C(N)O[C@@H]3C[C@@H]32)c1 [Example 401, (R)-7-((3-((1R,5S,6R)-3-amino-5-(difluoromethyl)-2-oxa-4-azabicyclo[4.1.0]hept-3-en-5-yl)-4-fluorophenyl)amino)-6,7-dihydro-5H-cyclopenta[b]pyridine-3-carbonitrile] | 0.0575 | 108 | 
17 | N#Cc1cnc2c(c1)CC[C@@H]2Nc1ccc(F)c([C@@]2(C(F)F)N=C(N)O[C@@H]3C[C@@H]32)c1 (single isomer, unassigned) [Example 402] | 0.318 | 976 | 
18 | Cc1cc(C(F)F)cnc1C(=O)Nc1ccc(F)c([C@@]2(CF)N=C(N)O[C@@H]3C[C@@H]32)c1 [Example 201, N-(3-((1R,5S,6R)-3-amino-5-(fluoromethyl)-2-oxa-4-azabicyclo[4.1.0]hept-3-en-5-yl)-4-fluorophenyl)-5-(difluoromethyl)-3-methylpicolinamide] | 0.0179 | 63.8 | 

Now from value to compound:

Row | IC50 (BACE) [µM] | IC50 [1] [nM] | IC50 (Cathepsin D (Cat D)) [µM] | Compound
19 | > 15.6 | 6180 | 191 | COc1cnc(C(=O)Nc2ccc(F)c([C@]3(C(F)F)N=C(N)O[C@H]4C[C@H]43)c2)c(C)n1 [Example 64, N-(3-((1S,5R,6S)-3-amino-5-(difluoromethyl)-2-oxa-4-azabicyclo[4.1.0]hept-3-en-5-yl)-4-fluorophenyl)-5-methoxy-3-methylpyrazine-2-carboxamide]
20 | 0.0089 | 94.4 | 402 | C[C@]1(c2cc(NC(=O)c3ccc(Cl)cn3)cnc2F)N=C(N)O[C@@H]2C[C@@H]21 [Example 334, N-(5-((1R,5S,6R)-3-amino-5-methyl-2-oxa-4-azabicyclo[4.1.0]hept-3-en-5-yl)-6-fluoropyridin-3-yl)-5-chloropicolinamide]
21 | > 15.6 | 28300 | 396 | Cc1cc(OC(F)F)cnc1C(=O)Nc1cc(F)c(Cl)c([C@]2(CF)N=C(N)O[C@H]3C[C@H]32)c1 [Example 157, N-(3-((1S,5R,6S)-3-amino-5-(fluoromethyl)-2-oxa-4-azabicyclo[4.1.0]hept-3-en-5-yl)-4-chloro-5-fluorophenyl)-5-(difluoromethoxy)-3-methylpicolinamide]
22 | 0.0156 | 124 | 759 | COc1ccc(C(=O)Nc2ccc(F)c([C@@]3(CF)N=C(N)O[C@@H]4C[C@@H]43)c2)nc1 [Example 195, N-(3-((1R,5S,6R)-3-amino-5-(fluoromethyl)-2-oxa-4-azabicyclo[4.1.0]hept-3-en-5-yl)-4-fluorophenyl)-5-methoxypicolinamide]
23 | 0.0152 | 33.8 | 349 | Cc1cc(Cl)cnc1C(=O)Nc1ccc(F)c([C@@]2(CF)N=C(N)O[C@@H]3C[C@@H]32)c1 [Example 198, N-(3-((1R,5S,6R)-3-amino-5-(fluoromethyl)-2-oxa-4-azabicyclo[4.1.0]hept-3-en-5-yl)-4-fluorophenyl)-5-chloro-3-methylpicolinamide]
24 | 0.003 | 12.9 | 303 | CC#CCOc1cnc(C(=O)Nc2ccc(F)c([C@@]3(C)N=C(N)O[C@@H]4C[C@@H]43)c2)c(C)c1 [Example 56, N-(3-((1R,5S,6R)-3-amino-5-methyl-2-oxa-4-azabicyclo[4.1.0]hept-3-en-5-yl)-4-fluorophenyl)-5-(but-2-yn-1-yloxy)-3-methylpicolinamide]
25 | 3.02 | 6640 | 19.2 | NC1=N[C@@](c2cc(NCC#Cc3ccccc3)ccc2F)(C(F)F)[C@H]2C[C@H]2O1 [Example 369, (1R,5S,6R)-5-(difluoromethyl)-5-(2-fluoro-5-((3-phenylprop-2-yn-1-yl)amino)phenyl)-2-oxa-4-azabicyclo[4.1.0]hept-3-en-3-amine]
26 | 0.0765 | 90.8 |  | Cc1cc(OC(F)F)cnc1C(=O)Nc1ccc(Cl)c(C2(C(F)F)N=C(N)O[C@@H]3C[C@@H]32)c1 (stereo partly drawn) [Example 209]
27 |  | 473 | 490 | CNc1cnc(C(=O)Nc2ccc(F)c([C@@]3(C(F)F)N=C(N)O[C@@H]4C[C@@H]43)c2)nc1 [Example 439, N-(3-((1R,5S,6R)-3-amino-5-(difluoromethyl)-2-oxa-4-azabicyclo[4.1.0]hept-3-en-5-yl)-4-fluorophenyl)-5-(methylamino)pyrimidine-2-carboxamide dihydrochloride]
